We go through one compound from article doi:10.1101/2025.01.30.635686v1 (biorxiv, 2025).

The assay has as its target T1, YME1LAAA (monomeric AAA+ domain) (Homo sapiens, UniProt Q96TA2).
T1 sequence (Q96TA2 317-588): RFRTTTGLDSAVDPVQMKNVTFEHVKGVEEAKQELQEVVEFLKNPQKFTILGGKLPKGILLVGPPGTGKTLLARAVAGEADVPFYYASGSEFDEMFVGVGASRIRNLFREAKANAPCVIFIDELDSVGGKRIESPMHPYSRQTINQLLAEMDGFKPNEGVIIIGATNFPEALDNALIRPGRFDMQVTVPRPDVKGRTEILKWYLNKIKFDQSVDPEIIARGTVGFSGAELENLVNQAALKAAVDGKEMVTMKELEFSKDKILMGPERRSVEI
The assay is described as follows: methyl-TROSY NMR titration. Type of assay: binding.

Structures are written as SMILES.

As a reminder, the Kd is a measure of binding affinity in units of concentration. A high value points to weaker binding. As for `Nc1ncnc2c1ncn2[C@@H]1O[C@H](COP(=O)(O)OP(=O)(O)O)[C@@H](O)[C@H]1O` [ADP], the Kd was 4.6 ± 2.3 µM.
